≈ marks a conversion by molar mass, not a printed value.
Legend:
[1] = system: Plasmodium falciparum; assay: Antimalarial activity against Plasmodium falciparum IV-V gametocytes; format: functional, organism-based
[2] = system: Plasmodium falciparum; assay: Antimalarial activity against Plasmodium falciparum 3D7; format: functional, organism-based
[3] = system: Plasmodium vinckei; assay: Antimalarial activity against Plasmodium vinckei infected in ip dosed mouse; format: functional
[4] = system: Plasmodium vinckei; assay: Antimalarial activity against Plasmodium vinckei infected in po dosed mouse; format: functional
[5] = system: Plasmodium berghei; assay: Antimalarial activity against Plasmodium berghei infected in sc dosed mouse; format: functional; details: Plasmodium berghei
[6] = system: Plasmodium yoelii; assay: Antimalarial activity against Plasmodium yoelii infected in sc dosed mouse; format: functional
[7] = system: Plasmodium yoelii; assay: Antimalarial activity against Plasmodium yoelii infected in po dosed mouse; format: functional
[8] = system: Plasmodium berghei; assay: Antimalarial activity against Plasmodium berghei infected in po dosed mouse; format: functional
[9] = system: Plasmodium vinckei; assay: Antimalarial activity against Plasmodium vinckei infected in mouse assessed as reduction in parasitaemia at 50 mg/kg, po or […], ip measured on day 5; format: functional; parameters: scale not given: the % may be the effect or the level left
[10] = system: Plasmodium vinckei; assay: Antimalarial activity against Plasmodium vinckei infected in mouse assessed as reduction in parasitaemia at 25 mg/kg, po or 7.5 mg/kg, ip measured on day 5; format: functional; parameters: scale not given: the % may be the effect or the level left
[11] = system: Plasmodium falciparum; assay: Antimalarial activity against Plasmodium falciparum INDO; format: functional, organism-based
[12] = system: Plasmodium falciparum; assay: Potency index, ratio of chloroquine IC50 to test compound IC50 for Plasmodium falciparum INDO; format: functional
[13] = Cytotoxicity against HEK293 cells; format: toxicity, cell-based; details: human
[14] = system: Plasmodium berghei; assay: Antimalarial activity against Plasmodium berghei N strain infected in mouse at 30 mg/kg, ip administered once daily for 4 days; format: functional; details: time 4 day
[15] = system: Plasmodium falciparum; assay: Antimalarial activity against chloroquine-sensitive Plasmodium falciparum NF54 infected in iv dosed mouse; format: functional
[16] = system: Plasmodium falciparum; assay: Antimalarial activity against Plasmodium falciparum NF54; format: functional, organism-based
[17] = system: Plasmodium falciparum; assay: Antimalarial activity against chloroquine-sensitive Plasmodium falciparum NF54; format: functional, organism-based
[18] = system: Plasmodium falciparum; assay: Antimalarial activity against chloroquine-sensitive Plasmodium falciparum NF54 infected in po dosed mouse; format: functional
[19] = system: Plasmodium falciparum; assay: Antimalarial activity against Plasmodium falciparum W2; format: functional, organism-based
[20] = system: Plasmodium falciparum; assay: Antimalarial activity against Plasmodium falciparum K1; format: functional, organism-based
[21] = system: Plasmodium yoelii; assay: Antimalarial activity against Plasmodium yoelii infected in mouse; format: functional
[22] = system: Plasmodium berghei; assay: Antimalarial activity against Plasmodium berghei K173 infected in mouse; format: functional; details: Plasmodium berghei, K173
[23] = system: Plasmodium falciparum; assay: Antimalarial activity against Plasmodium falciparum D6; format: functional, organism-based
[24] = system: Plasmodium berghei; assay: Antimalarial activity against Plasmodium berghei infected in mouse assessed as increase in survival at 100 mg/kg, po; format: functional
[25] = system: Plasmodium falciparum; assay: Antimalarial activity against late blood stage Plasmodium falciparum NF54 gametocytes; format: functional, organism-based
[26] = system: Plasmodium falciparum; assay: Antimalarial activity against ART-sensitive Plasmodium falciparum NF54; format: functional, organism-based
[27] = system: Plasmodium falciparum; assay: Antimalarial activity against Plasmodium falciparum D10; format: functional, organism-based
[28] = system: Plasmodium falciparum; assay: Antimalarial activity against ART-resistant Plasmodium falciparum NF54 harboring […] mutant; format: functional, organism-based
[29] = system: Plasmodium falciparum; assay: Antimalarial activity against ART-sensitive Plasmodium falciparum W2; format: functional, organism-based
[30] = system: Plasmodium falciparum; assay: Antimalarial activity against ART-resistant Plasmodium falciparum Dd2 harboring R539T mutant; format: functional, organism-based
[31] = system: Plasmodium falciparum; assay: Antimalarial activity against ART-sensitive Plasmodium falciparum 3D7; format: functional, organism-based
[32] = system: Plasmodium falciparum; assay: Antimalarial activity against chloroquine resistant Plasmodium falciparum FcB1/Colombia; format: functional, organism-based
[33] = Selectivity index, ratio of IC50 for human AB943 to IC50 for chloroquine resistant Plasmodium falciparum FcB1/Colombia
[34] = Cytotoxicity against human MRC5 cells; format: toxicity, cell-based
[35] = system: Plasmodium berghei; assay: Antimalarial activity against Plasmodium berghei N strain infected in mouse at 15 mg/kg, ip administered once daily for 4 days; format: functional; details: time 4 day
[36] = system: Plasmodium falciparum; assay: Antimalarial activity against chloroquine sensitive Plasmodium falciparum FCR-3; format: functional, organism-based
[37] = Selectivity index, ratio of IC50 for HEK293 cells to IC50 for Plasmodium falciparum NF54; format: toxicity; details: human, read-out: Ratio IC50
[38] = Toxicity in brine shrimp; details: artemia salina

## CCCCNC(=O)CCC(C)[C@H]1CCC2C3C(C[C@H](OC(C)=O)[C@@]21C)[C@@]1(C)CCC2(C[C@H]1C[C@H]3OC(C)=O)OOCOO2 (stereo not given in full)
[1]
  IC50: 1160 nM

## C[C@H]1[C@@H](OCCNCCCNc2ccnc3cc(Cl)ccc23)O[C@@H]2O[C@]3(C)CC[C@H]4[C@H](C)CC[C@@H]1[C@@]24OO3
[2]
  IC50: 5.2 nM
[3]
  ED50: < 0.8 mg/kg
[4]
  ED50: 13 mg/kg

## C[C@H]1[C@H](NC2CCN(c3ncccn3)CC2)O[C@@H]2O[C@]3(C)CC[C@H]4[C@H](C)CC[C@@H]1[C@@]24OO3
[5]
  ED90: 0.46 mg/kg
[6]
  ED90: 0.52 mg/kg
[7]
  ED90: 2 mg/kg
[8]
  ED90: 1.5 mg/kg

## C[C@H]1[C@@H](OCCN2CC[N+](CCNc3ccnc4cc(Cl)ccc34)(CCO[C@H]3O[C@@H]4O[C@]5(C)CC[C@H]6[C@H](C)CC[C@@H]([C@H]3C)[C@@]46OO5)CC2)O[C@@H]2O[C@]3(C)CC[C@H]4[C@H](C)CC[C@@H]1[C@@]24OO3
[9]
  Activity: <1%
[10]
  Activity: <1%

## C=C(c1ccc(-c2cccc3ccccc23)cc1)C1COC2(CCCC2)OO1 (stereo not given)
[11]
  IC50: 59 nM
[12]
  Ratio IC50: >9
[13]
  CC50: 3300 nM

## C[C@H]1[C@H](OC(=O)CCC(=O)O)O[C@@H]2O[C@@]3(C)CC[C@H]4[C@H](C)CC[C@@H]1[C@@]24OO3 [ARTESUNATE]
[14]
  Activity: 97.7%
[15]
  ED50: 5.5 mg/kg
[16]
  IC50: 1.2 ng/mL
[17]
  IC50: 18.4 nM
[2]; read-out: EC50
  EC50: 8.9 nM
[18]
  ED50: 5.5 mg/kg
[19]
  IC50: 2 nM
[20]
  IC50: 1.2 ng/mL
[21]
  ED50: 5 mg/kg
[22]
  ED50: 6.33 mg/kg/day

## C[C@H]1[C@@H](OCC(CO[C@H]2O[C@@H]3O[C@]4(C)CC[C@H]5[C@H](C)CC[C@@H]([C@H]2C)[C@@]35OO4)=NO)O[C@@H]2O[C@]3(C)CC[C@H]4[C@H](C)CC[C@@H]1[C@@]24OO3
[23]
  IC50: 13.8 nM
[24]
  Activity: 100%
[19]
  IC50: 9.9 nM

## C[C@H]1[C@@H](OCCNCCNc2ccnc3cc(Cl)ccc23)O[C@@H]2O[C@]3(C)CC[C@H]4[C@H](C)CC[C@@H]1[C@@]24OO3
[2]
  IC50: 20.5 nM
[3]
  ED50: 1.4 mg/kg
[4]
  ED50: 16 mg/kg

## C[C@H]1[C@@H](OCCN(CCCNc2ccnc3cc(Cl)ccc23)CCO[C@H]2O[C@@H]3O[C@]4(C)CC[C@H]5[C@H](C)CC[C@@H]([C@H]2C)[C@@]35OO4)O[C@@H]2O[C@]3(C)CC[C@H]4[C@H](C)CC[C@@H]1[C@@]24OO3
[9]
  Activity: <1%
[10]
  Activity: <1%

## C[C@H]1[C@H](N2CCS(=O)(=O)CC2)O[C@@H]2O[C@]3(C)CC[C@H]4[C@H](C)CC[C@@H]1[C@@]24OO3
[25]
  IC50: 42.4 nM
[26]
  IC50: 0.9 nM
[27]
  IC50: 1.1 nM
[28]
  IC50: 0.7 nM
[19]
  IC50: 0.9 nM
[29]
  IC50: 0.5 nM
[30]
  IC50: 1.4 nM
[31]
  IC50: 0.9 nM

## CCOP(=O)(CCCN(O)C(=O)CCC(=O)N(CCCCNC(=O)CCO[C@H]1O[C@@H]2O[C@]3(C)CC[C@H]4[C@H](C)CC[C@@H]([C@H]1C)[C@@]24OO3)CCCCNC(=O)CC[C@@H]1O[C@@H]2O[C@@]3(C)CC[C@@H]4[C@@H](C)CC[C@@H]([C@@H]1C)[C@]24OO3)OCC
[32]
  IC50: 0.65 nM
[33]
  Ratio IC50: 34

## C[C@H]1[C@@H](OCCCNc2ccc([N+](=O)[O-])c3nonc23)O[C@@H]2O[C@]3(C)CC[C@H]4[C@H](C)CC[C@@H]1[C@@]24OO3
[26]
  IC50: 11.2 nM
[28]
  IC50: 9.5 nM
[29]
  IC50: 9.6 nM
[30]
  IC50: 19.6 nM
[31]
  IC50: 22.6 nM

## C[C@H]1C(=O)O[C@@H]2O[C@]3(C)CC[C@H]4N(Cc5ccc(OCCN6CCOCC6)cc5)CC[C@@H]1[C@@]24OO3
[34]
  IC50: 35600 nM
[35]
  Activity: 98.6%
[36]
  IC50: 18 nM
[20]
  IC50: 33 nM

## C[C@H]1C(=O)O[C@@H]2O[C@]3(C)CC[C@H]4N(Cc5ccccc5)CC[C@@H]1[C@@]24OO3
[14]
  Activity: 95.6%
[34]
  IC50: 160000 nM
[35]
  Activity: 69.1%
[36]
  IC50: 58 nM
[20]
  IC50: 86 nM

## CC(C)CCC[C@H](C)C1CC[C@H]2[C@@H]3CC=C4C[C@@H](OC(=O)CCN5CCN([C@H]6O[C@@H]7O[C@]8(C)CC[C@H]9[C@H](C)CC[C@@H]([C@H]6C)[C@@]79OO8)CC5)CC[C@]4(C)[C@H]3CC[C@]12C (stereo not given in full)
[16]
  IC50: 31 nM
[19]
  IC50: 24 nM
[20]
  IC50: 29 nM
[37]
  selectivity ratio: 3900

## C[C@H]1[C@H](NC2CCN(Cc3ccccc3)CC2)O[C@@H]2O[C@]3(C)CC[C@H]4[C@H](C)CC[C@@H]1[C@@]24OO3
[5]
  ED90: 0.7 mg/kg
[6]
  ED90: 0.85 mg/kg
[7]
  ED90: 3 mg/kg
[8]
  ED90: 2.4 mg/kg

## C[C@H]1[C@H](OC(=O)CCCc2ccccc2)O[C@@H]2O[C@]3(C)CC[C@H]4[C@H](C)CC[C@@H]1[C@@]24OO3
[38]
  LC50: 139000 ng/mL (≈ 323 µM)
[2]
  IC50: 5.36 nM

From ChEMBL document CHEMBL5244272 (Eur J Med Chem, 2021)
